Earlier results, collected in patent publication US20030003131A1, “Method for manufacture of free-flowing powder containing water-dispersible sterols” (priority 2001, published 2003).
Read-outs that look alike come from different tables or passages of the source.

Legend:
cholesterol absorption [1] = tested on: cholesterol absorption
cholesterol absorption [2] = details: oil-free delivery system with emulsifier
LDL cholesterol = details: 2.8 g sitostanol/day given as sitostanol ester in margarine

neomycin
effect on cholesterol absorption (cholesterol absorption [1]; orally administered): reduces cholesterol absorption effectively

CC[C@H](CC[C@@H](C)[C@H]1CC[C@H]2[C@@H]3CC[C@H]4C[C@@H](O)CC[C@]4(C)[C@H]3CC[C@]12C)C(C)C [sitostanol]
reduction of serum cholesterol (serum cholesterol; 1.5 g/day, subjects with severe hypercholesterolemia): 15%
effect on serum cholesterol (serum cholesterol; 3 g/day, subjects with moderate hypercholesterolemia): no effect
reduction of cholesterol absorption (cholesterol absorption [2]): ≤ 37%

sitostanol ester
less effective at reducing cholesterol absorption compared to the unesterified sterol (cholesterol absorption [1]; humans, ester dissolved in dietary fat): 21%
reduction of LDL cholesterol (LDL cholesterol): 16%

CC[C@H](CC[C@@H](C)[C@H]1CC[C@H]2[C@@H]3CC=C4C[C@@H](O)CC[C@]4(C)[C@H]3CC[C@]12C)C(C)C [sitosterol]
decrease of serum cholesterol levels (serum cholesterol; 3-9 g/day of powdered sitosterol, dose-response study): 12%
reduction of serum cholesterol (serum cholesterol; doses of 5-18 g sitosterol/day): 16-20%
